Like-named read-outs stand apart in the source and are kept apart here.
Columns and labels:
[1] = test system: cellular dehydrogenase activity; settings: for MTT (composite Z-score): normalized score vs mock-treated (DMSO) wells
[2] = test system: nuOXPHOS transcripts; format: cell-based, mouse; settings: Conc 20 μM; for nucOX (composite Z-score): normalized score vs mock-treated (DMSO) wells
[3] = test system: C2C12 myotubes; settings: for Viability (composite Z-score): normalized score vs mock-treated (DMSO) wells
[4] = test system: reactive oxygen species; format: cell-based, mouse; settings: for ROS (composite Z-score): normalized score vs mock-treated (DMSO) wells
[5] = test system: cytochrome c; format: cell-based, mouse; settings: Conc 20 μM; for cyt c (composite Z-score): normalized score vs mock-treated (DMSO) wells
[6] = test system: OXPHOS gene expression; format: cell-based, mouse; settings: Conc 20 μM; for GE-HTS (composite Z-score): normalized score vs mock-treated (DMSO) wells
[7] = test system: mtOXPHOS transcripts; format: cell-based, mouse; settings: Conc 20 μM; for mitoOX (composite Z-score): normalized score vs mock-treated (DMSO) wells
[8] = test system: mitochondrial membrane potential; format: cell-based, mouse; settings: for ΔΨm (composite Z-score): normalized score vs mock-treated (DMSO) wells
[9] = normalized composite Z-score vs mock-treated (DMSO) wells, Conc 20 μM
[10] = normalized composite Z-score vs mock-treated (DMSO) wells
[11] = composite Z-score vs mock-treated (DMSO) wells, Conc 20 μM
[12] = composite Z-score vs mock-treated (DMSO) wells
[13] = Table 4, C2C12 myotubes, 48 h, composite Z-score
[14] = Table 4, C2C12 myotubes, 48 h, JC-1, composite Z-score
[15] = composite Z-score vs DMSO wells, Conc 20 μM
[16] = composite Z-score vs DMSO wells
[17] = composite Z-score vs DMSO, Conc 20 μM

cytochrome c, sequence (P62897 whole entry): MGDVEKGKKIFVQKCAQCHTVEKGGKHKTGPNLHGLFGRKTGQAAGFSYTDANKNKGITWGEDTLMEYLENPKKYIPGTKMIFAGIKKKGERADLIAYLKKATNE

CC1(C)C2CC(=O)[C@]3(C)C(CC[C@@]4(C)[C@H](c5ccoc5)OC(=O)[C@H]5O[C@]543)[C@@]2(C)C(=O)C[C@H]1O (stereo partly drawn)
MTT [1, 9]: −1.103
nucOX [2, 10]: −0.866
Viability [3, 9]: −0.023
ROS [4, 9]: 0.122
cyt c [5, 10]: 0.113
GE-HTS [6, 10]: −0.911
mitoOX [7, 10]: −0.875
ΔΨm [8, 9]: −0.335

COc1ccc2c(c1)C1(C)CCC(=O)CC1CC2 (stereo not drawn)
MTT [1, 9]: −2.008
nucOX [2, 10]: −0.582
Viability [3, 9]: −0.071
ROS [4, 9]: 1.860
cyt c [5, 10]: 0.380
GE-HTS [6, 10]: −0.632
mitoOX [7, 10]: −0.652
ΔΨm [8, 9]: −0.173

1,2alpha-epoxydeacetoxydihydrogedunin
MTT [1, 9]: −2.000
nucOX [2, 10]: −1.080
Viability [3, 9]: 0.074
ROS [4, 9]: 3.350
cyt c [5, 10]: −0.224
GE-HTS [6, 10]: −0.921
mitoOX [7, 10]: −0.468
ΔΨm [8, 9]: 0.210

2-hydroxy-5 (6)epoxy-tetrahydrocaryophyllene
MTT [1, 9]: −0.836
nucOX [2, 10]: −0.447
Viability [3, 9]: −0.772
ROS [4, 9]: 0.074
cyt c [5, 10]: 0.236
GE-HTS [6, 10]: −0.347
mitoOX [7, 10]: −0.043
ΔΨm [8, 9]: −0.739

3,7-epoxycaryophyllan-6-one
MTT [1, 9]: −0.698
nucOX [2, 10]: −0.824
Viability [3, 9]: 0.433
ROS [4, 9]: 0.603
cyt c [5, 10]: 0.131
GE-HTS [6, 10]: −0.812
mitoOX [7, 10]: −0.595
ΔΨm [8, 9]: −1.003

3-deoxo-3beta-acetoxydeoxydihydrogedunin
MTT [1, 11]: −1.633
nucOX [2, 12]: −0.791
Viability [3, 11]: 1.066
ROS [4, 11]: 1.249
cyt c [5, 12]: 0.398
GE-HTS [6, 12]: −0.742
mitoOX [7, 12]: −0.559
ΔΨm [8, 11]: 1.215

3-deoxo-3beta-hydroxymexicanolide 16-enol ether
MTT [1, 11]: −1.922
nucOX [2, 12]: −0.247
Viability [3, 11]: 0.290
ROS [4, 11]: 1.279
cyt c [5, 12]: −0.040
GE-HTS [6, 12]: −0.203
mitoOX [7, 12]: −0.133
ΔΨm [8, 11]: −0.059

3-nor-3-oxopanasinsan-6-ol
MTT [1, 9]: −0.492
nucOX [2, 10]: −0.831
Viability [3, 9]: 0.209
ROS [4, 9]: 0.172
cyt c [5, 10]: 0.864
GE-HTS [6, 10]: −0.605
mitoOX [7, 10]: 0.004
ΔΨm [8, 9]: −0.006

3alpha-hydroxy-3-deoxyangolensic acid methyl ester
MTT [1, 11]: −1.268
nucOX [2, 12]: −0.474
Viability [3, 11]: 0.949
ROS [4, 11]: 0.799
cyt c [5, 12]: −0.141
GE-HTS [6, 12]: −0.456
mitoOX [7, 12]: −0.377
ΔΨm [8, 11]: −0.043

3beta-chloroandrostanone
MTT [1, 11]: −1.203
nucOX [2, 12]: −1.192
Viability [3, 11]: −0.424
ROS [4, 11]: −0.077
cyt c [5, 12]: 1.021
GE-HTS [6, 12]: −1.190
mitoOX [7, 12]: −0.907
ΔΨm [8, 11]: −0.860

3beta-hydroxydeoxydesacetoxy-7-oxogedunin
MTT (composite Z-score) ([1]; Conc 20 μM): −0.615
nucOX (composite Z-score) [2]: −1.027
Viability (composite Z-score) ([3]; Conc 20 μM): 0.688
ROS (composite Z-score) ([4]; Conc 20 μM): 0.662
cyt c (composite Z-score) [5]: 0.306
GE-HTS (composite Z-score) [6]: −0.864
mitoOX (composite Z-score) [7]: −0.319
ΔΨm (composite Z-score) ([8]; Conc 20 μM): −0.064

7-deshydroxypyrogallin-4-carboxylic acid
MTT [1, 11]: −0.460
nucOX [2, 12]: −1.039
Viability [3, 11]: 0.121
ROS [4, 11]: −0.210
cyt c [5, 12]: 0.419
GE-HTS [6, 12]: −0.997
mitoOX [7, 12]: −0.770
ΔΨm [8, 11]: −1.109

12a-hydroxy-5-deoxydehydromunduserone [reference compound]
MTT [1, 13]: −1.976
MTT [1, 9]: −1.976
nucOX [2, 10]: 0.193
Viability [3, 13]: −0.940
Viability [3, 9]: −0.940
ROS [4, 13]: 0.823
ROS [4, 9]: 0.823
cyt c [5, 10]: −0.179
GE-HTS [6, 10]: 0.211
mitoOX [7, 10]: 0.239
ΔΨm [8, 14]: −0.179
ΔΨm [8, 9]: −0.179

C#CC1(O)CC[C@H]2[C@@H]3CCC4=CC(=O)CC[C@@H]4[C@H]3CC[C@@]21CC (mixture of isomers) [norgestrel]
MTT [1, 15]: −0.761
nucOX [2, 16]: −0.183
Viability [3, 15]: −0.966
ROS [4, 15]: 0.831
cyt c [5, 16]: −0.027
GE-HTS [6, 16]: −0.225
mitoOX [7, 16]: −0.187
ΔΨm [8, 15]: −0.965

C=CC(C)(O)CCC=C(C)C (single isomer, unassigned; (+)) [(+)-linalool]
MTT (composite Z-score) ([1]; Conc 20 μM): −1.338
nucOX (composite Z-score) [2]: 0.131
Viability (composite Z-score) ([3]; Conc 20 μM): −0.653
ROS (composite Z-score) ([4]; Conc 20 μM): 0.481
cyt c (composite Z-score) [5]: 0.690
GE-HTS (composite Z-score) [6]: −0.007
mitoOX (composite Z-score) [7]: −0.342
ΔΨm (composite Z-score) ([8]; Conc 20 μM): −0.810

O=C1c2ccc(O)cc2OC(c2cc(O)c(O)c(O)c2)C1O (stereo in doubt) [dihydrorobinetin, reference compound]
MTT (composite Z-score) ([1]; Conc 20 μM): −1.259
MTT [1, 13]: −1.259
nucOX (composite Z-score) [2]: −1.089
Viability (composite Z-score) ([3]; Conc 20 μM): −1.070
Viability [3, 13]: −1.070
ROS (composite Z-score) ([4]; Conc 20 μM): −0.393
ROS [4, 13]: −0.393
cyt c (composite Z-score) [5]: 0.082
GE-HTS (composite Z-score) [6]: −1.192
mitoOX (composite Z-score) [7]: −1.124
ΔΨm (composite Z-score) ([8]; Conc 20 μM): −3.396
ΔΨm [8, 14]: −3.396

C[C@H](C[C@@H](O)[C@@H]1OC1(C)C)[C@@H]1CC[C@]2(C)C3=CC[C@H]4C(C)(C)C(=O)CC[C@]4(C)[C@H]3CC[C@@]12C (stereo in doubt) [niloticin]
MTT [1, 11]: −0.481
nucOX [2, 12]: 0.648
Viability [3, 11]: 1.304
ROS [4, 11]: 0.817
cyt c [5, 12]: 0.136
GE-HTS [6, 12]: 0.543
mitoOX [7, 12]: 0.151
ΔΨm [8, 11]: 0.461

CC[C@@H](C)C(=O)O[C@H]1[C@H](O)[C@H]2[C@@H](CN3C[C@@H](C)CC[C@H]3[C@@]2(C)O)[C@@H]2C[C@]34O[C@]5(O)[C@@H](OC(=O)[C@](C)(O)[C@@H](C)O)CC[C@@]3(C)[C@@H]5[C@@H](OC(C)=O)[C@@H](OC(C)=O)[C@H]4[C@@]21O (stereo in doubt) [protoveratrine B]
MTT [1, 17]: 0.904
nucOX ([2]; composite Z-score vs DMSO): 0.058
Viability [3, 17]: 0.708
ROS [4, 17]: 0.244
cyt c ([5]; composite Z-score vs DMSO): −1.085
GE-HTS ([6]; composite Z-score vs DMSO): 0.018
mitoOX ([7]; composite Z-score vs DMSO): −0.096
ΔΨm [8, 17]: 0.942

CC(=O)O[C@@H]1CC2C(C)(C)C(=O)[C@@H]3O[C@@H]3[C@]2(C)C2CC[C@]3(C)C(=CC(=O)O[C@H]3c3ccoc3)[C@@]21C (stereo partly drawn) [1 (2)alpha-epoxydeoxydihydrogedunin]
MTT [1, 9]: −1.048
nucOX [2, 10]: −0.831
Viability [3, 9]: 0.015
ROS [4, 9]: 2.784
cyt c [5, 10]: 0.022
GE-HTS [6, 10]: −0.801
mitoOX [7, 10]: −0.539
ΔΨm [8, 9]: 0.074

CC1(C)C2CC(=O)[C@]3(C)C(CC[C@@]4(C)[C@H](c5ccoc5)OC(=O)C5OC543)[C@@]2(C)[C@@H](O)C[C@H]1O (stereo partly drawn) [1,3-dideacetyl-7-deacetoxy-7-oxokhivorin]
MTT [1, 9]: −1.399
nucOX [2, 10]: −0.716
Viability [3, 9]: 0.190
ROS [4, 9]: 1.267
cyt c [5, 10]: 0.226
GE-HTS [6, 10]: −0.665
mitoOX [7, 10]: −0.497
ΔΨm [8, 9]: 1.329

CC(=O)O[C@@H]1C[C@H]2C(C)(C)[C@H](O)C[C@H](O)[C@]2(C)[C@H]2CC[C@@]3(C)[C@H](c4ccoc4)OC(=O)[C@H]4O[C@]43[C@@]21C [1,3-dideacetylkhivorin]
MTT [1, 17]: −0.622
nucOX ([2]; composite Z-score vs DMSO): −0.349
Viability [3, 17]: 0.507
ROS [4, 17]: 0.963
cyt c ([5]; composite Z-score vs DMSO): 0.887
GE-HTS ([6]; composite Z-score vs DMSO): −0.693
mitoOX ([7]; composite Z-score vs DMSO): −1.275
ΔΨm [8, 17]: 0.051

Cc1cc(O)c2c(c1O)C(=O)c1c(O)cc(C)c(O)c1C2=O [1,4,5,8-tetrahydroxy-2,6-dimethylanthroquinone, reference compound]
MTT [1, 13]: −0.344
MTT [1, 17]: −0.344
nucOX ([2]; composite Z-score vs DMSO): −1.178
Viability [3, 13]: −0.853
Viability [3, 17]: −0.853
ROS [4, 13]: 0.772
ROS [4, 17]: 0.772
cyt c ([5]; composite Z-score vs DMSO): 0.005
GE-HTS ([6]; composite Z-score vs DMSO): −1.123
mitoOX ([7]; composite Z-score vs DMSO): −0.739
ΔΨm [8, 14]: −0.662
ΔΨm [8, 17]: −0.662

CC(=O)O[C@@H]1CC(=O)[C@@]2(C)C(CC(=O)[C@]3(C)C2CC[C@@]2(C)[C@H](c4ccoc4)OC(=O)C4OC423)C1(C)C (stereo partly drawn) [1,7-dideacetoxy-1,7-dioxokhivorin]
MTT [1, 11]: −0.142
nucOX [2, 12]: −0.585
Viability [3, 11]: 0.042
ROS [4, 11]: 0.352
cyt c [5, 12]: 0.539
GE-HTS [6, 12]: −0.558
mitoOX [7, 12]: −0.355
ΔΨm [8, 11]: −0.535

CC1(C)C2C[C@@H](O)[C@]3(C)C(CC[C@@]4(C)[C@H](c5ccoc5)OC(=O)C5OC543)[C@@]2(C)C(=O)C[C@H]1O (stereo partly drawn) [1-deacetoxy-1-oxo-3,7-dideacetylkhivorin]
MTT (composite Z-score) ([1]; Conc 20 μM): −1.776
nucOX (composite Z-score) [2]: −0.704
Viability (composite Z-score) ([3]; Conc 20 μM): −0.413
ROS (composite Z-score) ([4]; Conc 20 μM): 0.626
cyt c (composite Z-score) [5]: −0.411
GE-HTS (composite Z-score) [6]: −0.525
mitoOX (composite Z-score) [7]: −0.020
ΔΨm (composite Z-score) ([8]; Conc 20 μM): −0.321

Source: patent publication US20090143279A1 (priority 2007, published 2009)
